# Results taken from patent publication US20230109839A1, “THERAPEUTIC AGENT FOR TAUOPATHIES” (SUMITOMO PHARMA CO., LTD., priority 2020, published 2023).
# Biological target: T1, human Nav1.1 (Homo sapiens, UniProt P35498)
# T1 construct: host or cells: HEK293
# Test: Amplification of Nav1.1-derived voltage-gated sodium current (Nav1.1 current), automated patch clamp (Test 1)
# Format: cell-based
# Details: Concentration for evaluation 1 μM; HEK293 cell line stably expressing human Nav1.1
# Outline: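 Compound-induced change in ramp-evoked sodium current peak and AUC was expressed as 100×post/pre ratio minus 100. Recordings used automated patch clamp in voltage-clamp mode on a stable human Nav1.1 HEK293 line, including only cells above 500 pA. Compounds were delivered in extracellular fluid containing 1% DMSO.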
row,Nav1.1 current amplification rate (%),Structure (SMILES)
1,15%,CC1CC=C(c2ccc(=O)n(CC(=O)N3CCCN(c4cccnc4)CC3)n2)CC1 (stereo not drawn) [Example 384]
2,77%,CO[C@@H]1CCN(Cc2cccc3c2CCN3C(=O)Cn2nc(C3=CCC(C)CC3)ccc2=O)C1 (stereo partly drawn) [Example 273]
3,10%,CC1CC=C(c2ccc(=O)n(CC(=O)N3CCc4c3ccnc4C3=CCN(C(=O)OC(C)(C)C)C3)n2)CC1 (stereo not drawn) [Example 280]
4,115%,Cc1cn(Cc2cccc3c2CCN3C(=O)Cn2nc(C3=CCC(C)CC3)ccc2=O)cn1 (stereo not drawn) [Example 288]
5,191%,CC1CC=C(c2ccc(=O)n(CC(=O)Nc3ccn4ncnc4c3)n2)CC1 (stereo not drawn) [Example 330]
6,219%,CC(=O)N1CC(c2cccc3c2CCN3C(=O)Cn2ncc3ncc(N(C)C4CCC4)nc32)C1 [Example 695]
7,113%,CC1CC=C(c2ccc(=O)n(CC(=O)N3CCc4c3ccnc4-c3cn[nH]c3)n2)CC1 (stereo not drawn) [Example 285]
8,18%,CN1CC(c2cccc3c2CCN3C(=O)Cn2ncc3ncc(N(C)C4CCC4)nc32)C1 [Example 698]
9,26%,Cc1nccn1-c1ccc(NC(=O)Cn2ncc3ncc(N(C)C4CCCC4)nc32)cc1 [Example 681]
10,151%,CC1CC=C(c2ccc(=O)n(CC(=O)N3CCc4c3ccnc4-c3cccnc3)n2)CC1 (stereo not drawn) [Example 297]
11,14%,CN(c1cnc2cnn(CC(=O)Nc3ccn4ncnc4c3)c2n1)C1CCC(F)(F)C1 (stereo not drawn) [Example 628]
12,34%,CN(c1cnc2cnn(CC(=O)Nc3cccc(N4CCOCC4)c3F)c2n1)C1CCCC1 [Example 671]
13,101%,Cc1cc(NC(=O)Cn2nc(C3=CCC(C)CC3)ccc2=O)cn2ncnc12 (stereo not drawn) [Example 349]
14,17%,CN(c1cnc2cnn(CC(=O)Nc3ccc4cnccc4n3)c2n1)C1CC1 [Example 721]
15,26%,CCC1CC=C(c2cnc3cnn(CC(=O)Nc4ccc5ncnn5c4)c3n2)CC1 (stereo not drawn) [Example 650]
16,101%,Cc1nccn1-c1ccc(NC(=O)Cn2nc(C3=CCC(C)CC3)ccc2=O)cc1 (stereo not drawn) [Example 361]
17,87%,CC1CC=C(c2ccc(=O)n(CC(=O)N3CCc4c3ccnc4C3=CCOCC3)n2)CC1 (stereo not drawn) [Example 296]

# Same assay, conditions: Concentration for evaluation 3 μM; HEK293 cell line stably expressing human Nav1.1
row,Nav1.1 current amplification rate (%),Structure (SMILES)
1,309%,CC1CC=C(c2ccc(=O)n(CC(=O)N3CCc4c(-c5cn[nH]c5)cccc43)n2)CC1 (stereo not drawn) [Example 254]
2,105%,COc1cnc(C)c(N2CCN(C(=O)Cn3nc(C4=CCC(C)CC4)ccc3=O)CC2)c1 (stereo not drawn) [Example 418]
3,244%,COc1ncc(N2CCN(C(=O)Cn3nc(C4=CCC(C)CC4)ccc3=O)CC2)cc1F (stereo not drawn) [Example 409]

# Same assay, conditions: Concentration for evaluation 10 μM; HEK293 cell line stably expressing human Nav1.1
row,Nav1.1 current amplification rate (%),Structure (SMILES)
1,35%,CC(C)(C)C1CCN(c2ccc(=O)n(CC(=O)Nc3ccc(C#N)cc3)n2)CC1 [Example 6]
2,398%,CC1CC=C(c2ccc(=O)n(CC(=O)N3CCc4c(N5CCOCC5)cccc43)n2)C1 (stereo not drawn) [Example 477]
3,128%,O=C(Cn1nc(C2=CCCC2)ccc1=O)N1CCc2c(N3CCOCC3)cccc21 [Example 481]
4,76%,CC1CCCN(c2ccc(=O)n(CC(=O)Nc3ccc(C#N)cc3)n2)C1 (stereo not drawn) [Example 13]
5,34%,Cc1ccc(-c2ccc(=O)n(CC(=O)Nc3ccnnc3)n2)cc1 [Example 142]
6,420%,COc1cc(-c2cc(Cl)cs2)nn(CC(=O)N2CCc3c(N4CCOCC4)cccc32)c1=O [Example 479]
7,20%,Cc1cc(NC(=O)Cn2nc(N3CCC(C)CC3)ccc2=O)cc(C)n1 [Example 54]
8,364%,N#Cc1ccc(NC(=O)Cn2nc(N3CCC4(CCC4)CC3)ccc2=O)cc1 [Example 26]
9,187%,COc1cc(=O)n(CC(=O)Nc2ccc3ocnc3c2)nc1C1=CCC(C(F)(F)F)CC1 (racemic) [Example 450]
10,29%,O=C(Cn1nc(C2=CCC(F)(F)CC2)ccc1=O)N1CCN(c2cncc(F)c2)CC1 [Example 489]
11,85%,CC1(C)CCCC(c2ccc(=O)n(CC(=O)Nc3ccc(C#N)cc3)n2)C1 (stereo not drawn) [Example 46]
12,98%,CC1CC=C(c2ccc(=O)n(CC(=O)N3CCN(c4ccccn4)CC3)n2)CC1 (stereo not drawn) [Example 394]
13,137%,Cc1nc2cc(NC(=O)Cn3nc(N4CCC(C)CC4)ccc3=O)ccc2o1 [Example 69]
14,296%,CCc1nc2cc(NC(=O)Cn3nc(N4CCC(C)CC4)ccc3=O)ccc2o1 [Example 97]
15,273%,CC1CC=C(c2ccc(=O)n(CC(=O)N3CC=C(c4cncc(F)c4)CC3)n2)CC1 (stereo not drawn) [Example 397]
16,28%,COc1ccc2c(c1)CCN2C(=O)Cn1nc(C2=CCC(C)(C)CC2)ccc1=O [Example 430]

# Same assay, conditions: Concentration for evaluation 50 μM; HEK293 cell line stably expressing human Nav1.1
row,Nav1.1 current amplification rate (%),Structure (SMILES)
1,55%,CC1CCC(F)(F)CN1c1ncc2cnn(CC(=O)Nc3ccn4ncnc4c3)c2n1 (stereo not drawn) [Example 793]
2,64%,CC1CC=C(c2ccc(=O)n(CC(=O)Nc3ccnc(C4=CCN(C)C4)c3)n2)CC1 (stereo not drawn) [Example 371]
3,98%,Cc1cc2ncnn2cc1NC(=O)Cn1nc(C2=CCC(C)CC2)ccc1=O (stereo not drawn) [Example 351]
4,32%,Cc1c(NC(=O)Cn2nc(C3=CCC(C)CC3)ccc2=O)ccc2ncnn12 (stereo not drawn) [Example 353]
5,35%,Cc1ccc(-c2ncc3cnn(CC(=O)Nc4ccn5ncnc5c4)c3n2)o1 [Example 772]

# Same assay, conditions: HEK293, Concentration for evaluation 1 μM; HEK293 cell line stably expressing human Nav1.1; read-out: Nav1.1 current amplification rate (%)
row,activation at 1 µM,Structure (SMILES)
1,49%,"CC1CCN(c2cnc3cnn(CC(=O)Nc4ccn5ncnc5c4)c3n2)CC1 [Example 572, 2-[6-(4-Methylpiperidin-1-yl)-1H-pyrazolo[3,4-b]pyrazin-1-yl]-N-([1,2,4]triazolo[1,5-a]pyridin-7-yl)acetamide]"

# Same assay, conditions: HEK293, Concentration for evaluation 10 μM; HEK293 cell line stably expressing human Nav1.1; read-out: Nav1.1 current amplification rate (%)
row,activation at 10 µM,Structure (SMILES)
1,7%,Cc1nc2cc(NC(=O)Cn3nc(N4CCCCC4)ccc3=O)ccc2o1 [Example 118]

# Same assay, conditions: HEK293, concentration for evaluation 1 μM; HEK293 stably expressing human Nav1.1; read-out: Nav1.1 current amplification rate (%)
row,activation at 1 µM,Structure (SMILES)
1,28%,CN(c1ncc2cnn(CC(=O)Nc3cnc4cccnc4c3)c2n1)C1CC1 [Example 841]
2,26%,O=C(Cn1ncc2cnc(N3CCC4(CCC4)C3)nc21)Nc1ccn2ccnc2c1 [Example 834]
3,283%,CC1CC=C(c2ncc3cnn(CC(=O)NC4=CC5N=COC5C=C4)c3n2)CC1 (stereo not drawn) [Example 833]
4,101%,CN(c1ccc2cnn(CC(=O)Nc3cnc4cccnc4c3)c2n1)C1CC1 [Example 888]

# Same assay, conditions: concentration for evaluation 1 μM; HEK293 stably expressing human Nav1.1
row,Nav1.1 current amplification rate (%),Structure (SMILES)
1,18%,CC1(C)CCN(c2ccc3cnn(CC(=O)Nc4ccn5ncnc5c4)c3n2)C1 [Example 857]
2,86%,O=C(Cn1ncc2cnc(C3=CCC(F)(F)CC3)nc21)Nc1ccc2cncnc2c1 [Example 810]
3,89%,CN(CC1CCC1)c1ccc2cnn(CC(=O)Nc3ccc4ncnn4c3)c2n1 [Example 873]
4,43%,CN(c1ccc2cnn(CC(=O)Nc3ccc4ncnn4c3)c2n1)C1CCCC1 [Example 875]
